Laboratory results: patent publication US20100226966A1, “Method for transdermal controlled release drug delivery” (priority 2009, published 2010)

Tests used:
Water solubility of PTH = assay type: physicochemical; details: at pH 5
Text: Referring now to FIG. 10, there is shown a superposition of the mole ratios for acetic acid and the neutral form of hPTH(1-34). […] At pH 5, negligible amounts of PTH are present as PTH zero net charge (PTH 0). The PTH is also highly soluble in water at concentrations in excess of 20%. During drying and subsequent storage, the free acetic acid will evaporate inherently resulting in formation of the water insoluble PTH 0. Subsequent reconstitution in water will not allow total solubilization of PTH. Accordingly, the use of a low volatility counterion provides a solid soluble formulation of PTH as long as the pH is maintained at least 2.5 pH units, preferably 3 pH units, below the pI of PTH. Preferably, this can be achieved by providing at least about two low volatility counterions to each molecule of PTH.

urinary cAMP = test: Urinary cAMP excretion after transdermal vs subcutaneous PTH delivery; assay type: in vivo, human (healthy, young females); details: FIG. 15
Protocol: (§1) In this example, transdermal delivery of a PTH-based agent using a coated microprojection member was compared to conventional, subcutaneous delivery of teriparatide PTH (Forteo™). A dose-finding study was conducted with […], young females that received two treatments, separated by at least five days, according to randomly assigned sequence of 20 μg subcutaneous delivery of Forteo™ and 30 μg transdermal delivery of a PTH-based agent by coated microprojection. Bioavailability of transdermally delivered PTH was determined in 20 healthy, young females by administering two treatments, separated by at least five day, according to randomly assigned sequence of 40 μg subcutaneous delivery of Forteo™ and 30 μg transdermal delivery of a PTH-based agent by coated microprojection.
FIG. 12 further reflects a preferred pulsatile concentration profile of the PTH agent, i.e., rapid on-set and rapid off-set after reaching Cmax.

[1] = Clinical dose-finding and bioavailability study, transdermal coated microprojection vs subcutaneous Forteo, PTH plasma levels and safety; assay type: in vivo, human (healthy, young females)
Protocol: as §1
In the dose-finding study, two participants dropped out, eleven subjects participated and eight generated usable data. It was determined that three subjects had measurable PTH plasma levels following subcutaneous injection and eight subjects had measurable PTH plasma levels following transdermal delivery.

[2] = Pharmacokinetics of hPTH (1-34) after IV, SC and coated microprojection array administration in hairless guinea pig; assay type: in vivo; details: HGP; for dose absorbed/delivered: calculated against IV AUC

CC[C@H](C)[C@H](NC(=O)[C@H](CCC(=O)O)NC(=O)[C@H](CO)NC(=O)[C@@H](NC(=O)[C@@H](N)CO)C(C)C)C(=O)N[C@@H](CCC(N)=O)C(=O)N[C@@H](CC(C)C)C(=O)N[C@@H](CCSC)C(=O)N[C@@H](Cc1cnc[nH]1)C(=O)N[C@@H](CC(N)=O)C(=O)N[C@@H](CC(C)C)C(=O)NCC(=O)N[C@@H](CCCCN)C(=O)N[C@@H](Cc1cnc[nH]1)C(=O)N[C@@H](CC(C)C)C(=O)N[C@@H](CC(N)=O)C(=O)N[C@@H](CO)C(=O)N[C@@H](CCSC)C(=O)N[C@@H](CCC(=O)O)C(=O)N[C@@H](CCCN=C(N)N)C(=O)N[C@H](C(=O)N[C@@H](CCC(=O)O)C(=O)N[C@@H](Cc1c[nH]c2ccccc12)C(=O)N[C@@H](CC(C)C)C(=O)N[C@@H](CCCN=C(N)N)C(=O)N[C@@H](CCCCN)C(=O)N[C@@H](CCCCN)C(=O)N[C@@H](CC(C)C)C(=O)N[C@@H](CCC(N)=O)C(=O)N[C@@H](CC(=O)O)C(=O)N[C@H](C(=O)N[C@@H](Cc1cnc[nH]1)C(=O)N[C@@H](CC(N)=O)C(=O)N[C@@H](Cc1ccccc1)C(=O)O)C(C)C)C(C)C [hPTH (1-34)]
solubility in water (concentration) (Water solubility of PTH): > 20%
biological activity as evidenced by urinary cAMP excretion (urinary cAMP): comparable to that following subcutaneous delivery
subjects with measurable PTH plasma levels ([1]; bioavailability study, subcutaneous delivery 40 μg, 20 subjects completed): 15 subjects
subjects with measurable PTH plasma levels ([1]; bioavailability study, transdermal delivery 30 μg, 20 subjects completed): 20 subjects
subjects with measurable PTH plasma levels ([1]; dose-finding study, subcutaneous injection 20 μg, eight subjects with usable data): three
subjects with measurable PTH plasma levels ([1]; dose-finding study, transdermal delivery 30 μg, eight subjects with usable data): eight
Fraction dose absorbed/delivered (%) ([2]; IV, 22.5 μg): 100%
dose absorbed/delivered ([2]; SC, 19.5 μg): 8.2 ± 2.9 µg
Cmax ([2]; hairless, guinea pig, plasma, 22.5 ug, IV): 11.2 ng/mL
dose absorbed/delivered ([2]; microprojection array, 40.0 μg): 6.6 ± 1.8 µg
